{"source": "paper PMC2877875", "about": "“Characterisation of the bifunctional dihydrofolate synthase–folylpolyglutamate synthase from Plasmodium falciparum; a potential novel target for antimalarial antifolate inhibition” (Molecular and Biochemical Parasitology, 2010)", "molecules": {"B1": {"name": "PfDHFS–FPGS (DHFS activity) (Plasmodium falciparum 3D7) (protein)", "chain": "MEKNQNDKSNKNDIIHMNDKSGNYDKNNINNFIDKNDEHDMSDILHKINNEEKKYEEIKSYSECLELLYKTHALKLGLDNPKKLNESFGHPCDKYKTIHIAGTNGKGSVCYKIYTCLKIKKFKVGLFSSPHIFSLRERIIVNDEPISEKELIHLVNEVLNKAKKLYINPSFFEIITLVAFLHFLNKKVDYAIIETGIGGRLDATNILTKPEVIVITSIGYDHLNILGDNLPIICNEKIGIFKKDANVVIGPSVAIYKNVFDKAKELNCTIHTVVPEPRGERYNEENSRIALRTLEILNISIDYFLKSIIPIKPPLRIQYLATEQIQHIKKKFSPDNLEHNVQYPLAVILDVGHNETAIDRLCTDINYFHKGQNIRICISITKPRNLSVFHPFIAQFGDTLKDIFYLPSLNERTYDFEEIVEMLNNEEEIKNEIKELILSSSKKVGKWLAHEKQGNINEEDALKLYKRGCIPLIIKNAFLECCKDNSILLVCGTFFVFDEVLNVFDIHSDMQDTIFMNEPSLV"}}, "key": {"[1]": {"target": "PfDHFS–FPGS (FPGS activity) (Plasmodium falciparum, UniProt Q8IE69)", "test": "biochemical", "format": "biochemical", "method": "(§1) A standard reaction mix based on those established for bacterial and eukaryotic DHFS/FPGS assays was adopted [[28,36,37]] and contained 10 mM MgCl2, 5 mM DTT, 200 mM KCl, 100 mM Tris, 50 mM glycine, 1 mg/ml BSA, 45 μg/ml DHFS–FPGS protein (0.72 μM), pH 10. […] The enzyme reactions were carried out at 37 °C for 60 min in triplicate and stopped by transferring reaction tubes into an ice-cold water bath. Reaction mixes were then spotted onto DE81 ion-exchange paper (pre-treated with 0.5 M EDTA, pH 8.0 and then dried), air dried and the unreacted label washed away with 125 ml of 40 mM NaCl, 10 mM Tris–HCl, pH 8.0, four times, 20 min each wash. The filter was then exposed to a storage phosphor screen overnight and the screen scanned with a quantitative imager (Typhoon Trio Variable Mode Imager, GE Healthcare, UK). The measured counts were converted to concentrations by comparison with a standard curve derived from known amounts of the radiolabelled L-glutamate subsequently used as substrate in the assays. The enzyme activity data was analysed using the Matlab software package. Regression curves were fitted using the least squares routine."}, "[2]": {"test_system": "bacterial and mammalian FPGS", "settings": "read-out: Km with bacterial and mammalian FPGS; cited from earlier work"}, "P. falciparum FCB strain": {"test_system": "P. falciparum FCB strain", "test": "Metabolic labelling of parasite cultures with 3H-folinic acid and 3H-methotrexate, HPLC analysis", "format": "cell-based, Plasmodium falciparum", "settings": "for conversion to polyglutamylated forms in parasite cultures: 3H label 0.5 μCi/ml, ring-stage culture, 20 h incubation, HPLC", "method": "0.5 μCi/ml of either ^3H-folinic acid or ^3H-methotrexate at the same specific activity was used to label parallel 50 ml synchronous cultures of P. falciparum FCB strain. Label was incubated with ring-stage (6–10 h) parasites, which were harvested at the late trophozoite stage 20 h later. The labelled products were extracted by the boiling method and analysed using HPLC on a C18 column eluted with an acetonitrile gradient as described."}, "[3]": {"target": "PfDHFS–FPGS (DHFS activity) (Plasmodium falciparum, UniProt Q8IE69)", "test": "DHFS assay of recombinant PfDHFS–FPGS ([14C]glutamate incorporation)", "format": "biochemical", "settings": "for Km: low co-substrate concentrations (ATP or glutamate ≤25 μM), Michaelis–Menten fit, read-out: apparent Km, DHFS activity", "method": "as §1"}, "bacterial DHFS": {"test_system": "bacterial DHFS", "settings": "cited from earlier work"}, "P. falciparum cultures": {"test_system": "P. falciparum cultures", "test": "Growth of P. falciparum cultures (dose–response)", "format": "cell-based, Plasmodium falciparum"}, "[4]": {"substrate": "N[C@@H](CCC(=O)O)C(=O)O", "test": "DHFS assay of recombinant PfDHFS–FPGS ([14C]glutamate incorporation)", "format": "biochemical", "settings": "other: low co-substrate concentrations (ATP or glutamate ≤25 μM), Michaelis–Menten fit; 37.0 °C", "method": "as §1"}, "[5]": {"settings": "low substrate concentrations, 25 μM substrate, 25 μM ATP, 18 μM glutamate"}}, "note": "“Also recorded” adds a separate entry of the source. Where two headings read alike, the source gives them in different places.", "data": [{"molecule": "5,6,7,8-tetrahydrofolate [THF]", "values": [{"measurement": "processing as substrate for polyglutamylation by FPGS activity (words)", "setting": "[1]", "value": "efficiently converted to polyglutamylated forms"}, {"measurement": "Km", "setting": "[2]", "value": "2 to 5", "unit": "µM"}]}, {"molecule": "Nc1nc(=O)c2c([nH]1)NCC(CNc1ccc(C(=O)N[C@@H](CCC(=O)O)C(=O)O)cc1)N2C=O", "note": "(mixture of isomers) [folinic acid]", "values": [{"measurement": "conversion to polyglutamylated forms in parasite cultures", "setting": "P. falciparum FCB strain", "value": "almost complete"}]}, {"molecule": "Nc1ncnc2c1ncn2[C@@H]1O[C@H](COP(=O)(O)OP(=O)(O)OP(=O)(O)O)[C@@H](O)[C@H]1O", "note": "[ATP]", "values": [{"measurement": "Km", "setting": "[3]", "value": 22.8, "unit": "µM"}]}, {"molecule": "Nc1nc(=O)c2c([nH]1)NCC(CNc1ccc(C(=O)N[C@@H](CCC(=O)O)C(=O)O)cc1)=N2", "note": "[DHF, 7,8-dihydrofolate]", "values": [{"measurement": "processing as substrate for polyglutamylation by FPGS activity (words)", "setting": "[1]", "value": "very poor substrates"}, {"measurement": "polyglutamylated forms of folate produced compared with that produced from THF", "setting": "[1]; high substrate concentrations, 100 μM substrate, 2 mM ATP, 200 μM glutamate", "value": 12, "unit": "%"}, {"measurement": "processing as substrate for polyglutamylation by FPGS activity (words)", "setting": "[1]; listed as dihydrofolate", "value": "negligibly processed"}, {"measurement": "polyglutamylated forms of folate produced compared with that produced from THF", "setting": "[1]; [5]", "value": 21, "unit": "%"}]}, {"molecule": "Nc1nc2c(c(=O)[nH]1)N=C(CNc1ccc(C(=O)O)cc1)CN2", "note": "[DHP, 7,8-dihydropteroate]", "values": [{"measurement": "DHP concentration at which DHFS activity peaked", "setting": "[3]; ATP 0.5 mM, glutamate up to ∼1 mM", "value": "1 to 2", "unit": "µM"}, {"measurement": "dissociation constant KA for the substrate binding (catalytic site)", "setting": "[3]; best-fit model a (partial substrate inhibition, three substrates), ATP 6 μM to 5 mM, glutamate 25 μM to 1 mM, n = 15", "value": 0.50, "unit": "µM"}, {"measurement": "Kd", "setting": "[3]; best-fit model a, ATP 6 μM to 5 mM, glutamate 25 μM to 1 mM, n = 15, read-out: dissociation constant KABCA for the substrate (DHP) inhibition (inhibitory site)", "value": 1250, "unit": "nM"}, {"measurement": "DHP concentration above which substrate inhibition became significant", "setting": "[3]; high ATP and glutamate", "value": "> 2", "unit": "µM"}, {"measurement": "Km", "setting": "[3]", "value": 0.88, "unit": "µM"}, {"measurement": "Km", "setting": "bacterial DHFS", "value": "0.4 to 6", "unit": "µM"}]}, {"molecule": "Nc1nc2c(c(=O)[nH]1)N=C(CNc1ccc(P(=O)(O)CC(CCC(=O)O)C(=O)O)cc1)CN2", "note": "(stereo not shown) [H2-1]", "values": [{"measurement": "IC50", "setting": "[3]", "value": 410, "unit": "nM"}, {"measurement": "Ki", "setting": "[3]", "value": 140, "unit": "nM"}, {"measurement": "potency for DHFS activity over FPGS activity", "setting": "[3]; from Ki values", "value": "about 5 fold"}, {"measurement": "Ki", "setting": "[1]", "value": 630, "unit": "nM"}]}, {"molecule": "Nc1nc2c(c(=O)[nH]1)N=C(CNc1ccc(C(=O)N[C@@H](CCP(=O)(O)CC(CCC(=O)O)C(=O)O)C(=O)O)cc1)CN2", "note": "(stereo partly shown) [H2-2]", "values": [{"measurement": "Ki", "setting": "[3]", "value": 1690, "unit": "nM"}, {"measurement": "IC50", "setting": "[1]", "value": 390, "unit": "nM"}, {"measurement": "Ki", "setting": "[1]", "value": 91, "unit": "nM"}, {"measurement": "potency for FPGS activity over DHFS activity", "setting": "[1]; from Ki values", "value": "~20", "unit": "fold"}]}, {"molecule": "CN(Cc1cnc2nc(N)nc(N)c2n1)c1ccc(C(=O)N[C@@H](CCC(=O)O)C(=O)O)cc1", "note": "[MTX, methotrexate]", "values": [{"measurement": "inhibition of DHFS activity", "setting": "[3]; MTX up to 1.0 mM, DHP 10 μM, ATP 5 mM, glutamate 275 μM", "value": "inhibited neither DHFS nor FPGS; also recorded: neither the DHFS nor FPGS activities showed any sensitivity"}, {"measurement": "processing as substrate for polyglutamylation by FPGS activity (words)", "setting": "[1]", "value": "negligibly processed; also recorded: not a substrate"}, {"measurement": "inhibition of FPGS activity", "setting": "[1]; MTX up to 1.0 mM, THF 10 μM, ATP 5 mM, glutamate 275 μM", "value": "inhibited neither DHFS nor FPGS; also recorded: neither the DHFS nor FPGS activities showed any sensitivity"}, {"measurement": "conversion to polyglutamylated forms in parasite cultures", "setting": "P. falciparum FCB strain", "value": "no polyglutamylated versions of MTX could be detected; also recorded: No polyglutamylated forms of MTX could be detected"}, {"measurement": "accumulation (uptake and retention) in parasites", "setting": "P. falciparum FCB strain; equal initial label concentrations, 20 h", "value": "somewhat higher levels than folinic acid; also recorded: exceeded that of folinic acid"}, {"measurement": "IC50", "setting": "P. falciparum cultures; Plasmodium falciparum, average for four different strains", "value": "~40", "unit": "nM"}, {"measurement": "effect on parasite growth at extremely low levels", "setting": "P. falciparum cultures; around 1 nM", "value": "stimulatory effect on growth"}]}, {"molecule": "Nc1nc2ncc(CNc3ccc(P(=O)(O)CC(CCC(=O)O)C(=O)O)cc3)nc2c(=O)[nH]1", "note": "(stereo not shown) [compound 1, 2-[[[4-[N-[(2-amino-3,4-dihydro-4-oxo-6-pteridinyl)methyl]amino]phenyl](hydroxy)phosphinoyl]methyl]pentane-1,5-dioic acid]", "values": [{"measurement": "strong inhibition of DHFS activity by the oxidised form", "setting": "[3]; oxidised (unreduced) form", "value": "not its oxidised form"}]}, {"molecule": "Nc1nc(=O)c2nc(CNc3ccc(C(=O)N[C@@H](CCC(=O)O)C(=O)O)cc3)cnc2[nH]1", "note": "[folic acid]", "values": [{"measurement": "processing as substrate for polyglutamylation by FPGS activity (words)", "setting": "[1]", "value": "very poor substrates; also recorded: very low level of activity"}, {"measurement": "processing as substrate for polyglutamylation by FPGS activity (words)", "setting": "[1]; listed as folate", "value": "negligibly processed"}, {"measurement": "polyglutamylated forms of folate produced compared with that produced from THF", "setting": "[1]; [5]", "value": "insignificant"}]}, {"molecule": "B1", "values": [{"measurement": "Km", "setting": "[4]", "value": 5.97, "unit": "µM"}]}]}
